{"source": "patent US20180311217A1", "about": "“METHODS OF TREATMENT AND COMPOSITIONS WITH XANTHINE OXIDASE INHIBITORS” (Takeda Pharmaceuticals U.S.A., Inc., priority 2013, published 2018)", "key": {"[1]": {"system": "hyperuricemic gout subjects with moderate to severe renal impairment", "experiment": "Example 1 study: serum creatinine (sCr)", "assay_type": "in vivo, human", "settings": "for mean sCr: no prior and/or current use ARB or ACEi; for changes in sCr: prior and/or current use of ACEi; for changes in sCr / changes in mean sCr levels: Months 6 and 12; for change in sCr over time compared with placebo: sCr 2.0 to <2.5 mg/dL at Baseline; for change in sCr over time compared to placebo: sUA of 9.0 to <10.0 mg/dL at Baseline", "procedure": "Efficacy of febuxostat was assessed by measurement of serum creatinine (and calculation of eGFR), clinic systolic and diastolic BP, and sUA levels. Serum samples for the analysis of serum creatinine (and calculation of eGFR) were collected at the time points stipulated in Schedule of Study Procedures (Table 1.). The primary efficacy variable was the change from Baseline to Month 12 in sCr. Summary statistics were presented for Baseline, postbaseline, and change from Baseline by treatment group at each visit. The primary analysis was based on the analysis of covariance (ANCOVA) model for change from baseline to Month 12 for the primary efficacy variable. The model included treatment as a factor, and the baseline sCr and prior use of an ARB or an ACEi (subjects taking an ARB or an ACEi or not taking an ARB or an ACEi) as covariates."}, "[2]": {"experiment": "Study TMX-99-001: febuxostat plasma pharmacokinetics", "assay_type": "in vivo, human", "parameters": "AUC24/Dose: unit not given here", "settings": "mean"}}}
{"smiles": "Cc1nc(-c2ccc(OCC(C)C)c(C#N)c2)sc1C(=O)O", "note": "[Febuxostat, 2-[3-cyano-4-(2-methylpropoxy)phenyl]-4-methylthiazole-5-carboxylic acid]", "values": [{"measurement": "renal function preservation compared with febuxostat 40/80 mg QD", "setting": "[1]; 30 mg BID", "result": "better renal function preservation"}, {"measurement": "Serum Creatinine, Change from Baseline", "setting": "[1]; 30 mg BID, Day 14", "result": 0.09, "unit": "mg/dL"}, {"measurement": "Serum Creatinine, Mean", "setting": "[1]; 30 mg BID, Day 14", "result": 2.18, "unit": "mg/dL"}, {"measurement": "Serum Creatinine, Change from Baseline", "setting": "[1]; 30 mg BID, Month 1", "result": 0.13, "unit": "mg/dL"}, {"measurement": "Serum Creatinine, Mean", "setting": "[1]; 30 mg BID, Month 1", "result": 2.23, "unit": "mg/dL"}, {"measurement": "Serum Creatinine, Change from Baseline", "setting": "[1]; 30 mg BID, Month 3", "result": 0.09, "unit": "mg/dL"}, {"measurement": "Serum Creatinine, Mean", "setting": "[1]; 30 mg BID, Month 3", "result": 2.18, "unit": "mg/dL"}, {"measurement": "Serum Creatinine, Change from Baseline", "setting": "[1]; 30 mg BID, Month 6", "result": 0.03, "unit": "mg/dL"}, {"measurement": "Serum Creatinine, Mean", "setting": "[1]; 30 mg BID, Month 6", "result": 2.12, "unit": "mg/dL"}, {"measurement": "Serum creatinine change from Baseline, LS mean", "setting": "[1]; 30 mg BID, Month 6", "result": 0.04, "unit": "mg/dL"}, {"measurement": "Serum creatinine change from Baseline, LS mean difference from placebo group", "setting": "[1]; 30 mg BID, Month 6", "result": -0.11, "unit": "mg/dL"}, {"measurement": "Serum Creatinine, Change from Baseline", "setting": "[1]; 30 mg BID, Month 9", "result": 0.11, "unit": "mg/dL"}, {"measurement": "Serum Creatinine, Mean", "setting": "[1]; 30 mg BID, Month 9", "result": 2.21, "unit": "mg/dL"}, {"measurement": "Serum Creatinine, Change from Baseline", "setting": "[1]; 30 mg BID, Month 12", "result": 0.04, "unit": "mg/dL"}, {"measurement": "Serum Creatinine, Mean", "setting": "[1]; 30 mg BID, Month 12", "result": 2.13, "unit": "mg/dL"}, {"measurement": "Serum creatinine change from Baseline, LS mean", "setting": "[1]; 30 mg BID, Month 12", "result": 0.09, "unit": "mg/dL"}, {"measurement": "Serum creatinine change from Baseline, LS mean difference from placebo group", "setting": "[1]; 30 mg BID, Month 12", "result": -0.10, "unit": "mg/dL"}, {"measurement": "mean sCr", "setting": "[1]; 30 mg BID", "result": "increased"}, {"measurement": "changes in sCr", "setting": "[1]; 30 mg BID", "result": "slight improvements"}, {"measurement": "changes in mean sCr levels", "setting": "[1]; 30 mg BID, prior and/or current use of ARB", "result": "minimal changes or a slight improvement"}, {"measurement": "change in sCr over time compared with placebo", "setting": "[1]; 30 mg BID", "result": "small favorable trend"}, {"measurement": "change in sCr over time compared to placebo", "setting": "[1]; 30 mg BID", "result": "small favorable trend"}, {"measurement": "changes in mean sCr levels", "setting": "[1]; 30 mg BID, subjects with moderate renal impairment", "result": "minimal changes"}, {"measurement": "Serum Creatinine, Change from Baseline", "setting": "[1]; 40/80 mg QD, Day 14", "result": 0.08, "unit": "mg/dL"}, {"measurement": "Serum Creatinine, Mean", "setting": "[1]; 40/80 mg QD, Day 14", "result": 2.30, "unit": "mg/dL"}, {"measurement": "Serum Creatinine, Change from Baseline", "setting": "[1]; 40/80 mg QD, Month 1", "result": 0.05, "unit": "mg/dL"}, {"measurement": "Serum Creatinine, Mean", "setting": "[1]; 40/80 mg QD, Month 1", "result": 2.25, "unit": "mg/dL"}, {"measurement": "Serum Creatinine, Change from Baseline", "setting": "[1]; 40/80 mg QD, Month 3", "result": 0.04, "unit": "mg/dL"}, {"measurement": "Serum Creatinine, Mean", "setting": "[1]; 40/80 mg QD, Month 3", "result": 2.24, "unit": "mg/dL"}, {"measurement": "Serum Creatinine, Change from Baseline", "setting": "[1]; 40/80 mg QD, Month 6", "result": 0.06, "unit": "mg/dL"}, {"measurement": "Serum Creatinine, Mean", "setting": "[1]; 40/80 mg QD, Month 6", "result": 2.26, "unit": "mg/dL"}, {"measurement": "Serum creatinine change from Baseline, LS mean", "setting": "[1]; 40/80 mg QD, Month 6", "result": 0.07, "unit": "mg/dL"}, {"measurement": "Serum creatinine change from Baseline, LS mean difference from placebo group", "setting": "[1]; 40/80 mg QD, Month 6", "result": -0.08, "unit": "mg/dL"}, {"measurement": "Serum Creatinine, Change from Baseline", "setting": "[1]; 40/80 mg QD, Month 9", "result": 0.01, "unit": "mg/dL"}, {"measurement": "Serum Creatinine, Mean", "setting": "[1]; 40/80 mg QD, Month 9", "result": 2.22, "unit": "mg/dL"}, {"measurement": "Serum Creatinine, Change from Baseline", "setting": "[1]; 40/80 mg QD, Month 12", "result": 0.19, "unit": "mg/dL"}, {"measurement": "Serum Creatinine, Mean", "setting": "[1]; 40/80 mg QD, Month 12", "result": 2.40, "unit": "mg/dL"}, {"measurement": "Serum creatinine change from Baseline, LS mean", "setting": "[1]; 40/80 mg QD, Month 12", "result": 0.23, "unit": "mg/dL"}, {"measurement": "Serum creatinine change from Baseline, LS mean difference from placebo group", "setting": "[1]; 40/80 mg QD, Month 12", "result": 0.04, "unit": "mg/dL"}, {"measurement": "mean sCr", "setting": "[1]; 40/80 mg QD", "result": "increased"}, {"measurement": "changes in sCr", "setting": "[1]; 40/80 mg QD", "result": "minimal changes"}, {"measurement": "change in sCr over time compared with placebo", "setting": "[1]; 40/80 mg QD", "result": "small favorable trend"}, {"measurement": "change in sCr over time compared to placebo", "setting": "[1]; 40/80 mg QD", "result": "small favorable trend"}, {"measurement": "changes in mean sCr levels", "setting": "[1]; 40/80 mg, prior and/or current use of ARB", "result": "minimal changes or a slight improvement"}, {"measurement": "changes in mean sCr levels", "setting": "[1]; 40/80 mg, subjects with moderate renal impairment", "result": "small increases"}, {"measurement": "Tmax", "setting": "[2]; IR 30 mg BID", "result": 0.70, "unit": "h"}, {"measurement": "Tmin", "setting": "[2]; IR 30 mg BID", "result": 24.00, "unit": "h"}, {"measurement": "AUC24/Dose", "setting": "[2]; IR 30 mg BID, AM + PM dose (60 mg)", "result": 103.73}, {"measurement": "Cmax", "setting": "[2]; IR 30 mg BID, Cmax following AM dose", "result": 1488.00, "unit": "ng/mL"}, {"measurement": "Cmax/dose", "setting": "[2]; IR 30 mg BID, Cmax following AM dose/AM dose (30 mg)", "result": 49.60, "unit": "ng/mL/mg"}, {"measurement": "Cmin", "setting": "[2]; IR 30 mg BID, terminal phase of PM dose", "result": 59.58, "unit": "ng/mL"}, {"measurement": "AUC24/Dose", "setting": "[2]; IR 30 mg single dose", "result": 84.16}, {"measurement": "Cmax", "setting": "[2]; IR 30 mg single dose", "result": 1283.54, "unit": "ng/mL"}, {"measurement": "Cmax/dose", "setting": "[2]; IR 30 mg single dose", "result": 42.78, "unit": "ng/mL/mg"}, {"measurement": "Tmax", "setting": "[2]; IR 30 mg single dose", "result": 0.89, "unit": "h"}, {"measurement": "Tmin", "setting": "[2]; IR 30 mg single dose", "result": 16.89, "unit": "h"}, {"measurement": "Cmin", "setting": "[2]; IR 30 mg single dose, terminal phase at or before 24 hours", "result": 17.50, "unit": "ng/mL"}, {"measurement": "AUC4-24", "setting": "[2]; IR 40 mg single dose", "result": 941.11, "unit": "ng·h/mL"}, {"measurement": "AUC24", "setting": "[2]; IR 40 mg single dose", "result": 4295.13, "unit": "ng·h/mL"}, {"measurement": "AUC24/Dose", "setting": "[2]; IR 40 mg single dose", "result": 107.38}, {"measurement": "Cmax", "setting": "[2]; IR 40 mg single dose", "result": 1822.11, "unit": "ng/mL"}, {"measurement": "Cmax/dose", "setting": "[2]; IR 40 mg single dose", "result": 45.55, "unit": "ng/mL/mg"}, {"measurement": "Tmax", "setting": "[2]; IR 40 mg single dose", "result": 1.19, "unit": "h"}, {"measurement": "Tmin", "setting": "[2]; IR 40 mg single dose", "result": 21.00, "unit": "h"}, {"measurement": "Cmin", "setting": "[2]; IR 40 mg single dose, terminal phase at or before 24 hours", "result": 15.13, "unit": "ng/mL"}, {"measurement": "AUC0-4", "setting": "[2]; IR 50 mg single dose", "result": 3116.06, "unit": "ng·h/mL"}, {"measurement": "AUC24", "setting": "[2]; IR 50 mg single dose", "result": 4374.36, "unit": "ng·h/mL"}, {"measurement": "AUC24/Dose", "setting": "[2]; IR 50 mg single dose", "result": 87.49}, {"measurement": "Cmax", "setting": "[2]; IR 50 mg single dose", "result": 1791.71, "unit": "ng/mL"}, {"measurement": "Cmax/dose", "setting": "[2]; IR 50 mg single dose", "result": 35.83, "unit": "ng/mL/mg"}, {"measurement": "Tmax", "setting": "[2]; IR 50 mg single dose", "result": 1.14, "unit": "h"}, {"measurement": "Tmin", "setting": "[2]; IR 50 mg single dose", "result": 22.00, "unit": "h"}]}
